We go through eleven compounds from US7420083B2, “Substituted aryloximes” (Wyeth, priority 2003, dated 2008).

In data set [1] the target is human PAI-1 (Homo sapiens, UniProt P05121). Briefly: Assay for determining the IC50 of inhibition of PAI-1 (active PAI-1 bound to tPA-coated plate, 33B8 antibody detection). The following applies: human PAI-1 50 ng/ml, pH 7.5. Type of data set: biochemical. The method, then: Assay for determining the IC50 of inhibition of PAI-1. This assay is based upon the non-SDS dissociable interaction between tPA and active PAI-1. Assay plates are initially coated with human tPA (10 μg/ml). Test compounds are dissolved in DMSO at 10 mM, then diluted with physiologic buffer (pH 7.5) to a final concentration of 1-50 μM. The test compounds are incubated with human PAI-1 (50 ng/ml) for 15 minutes at room temperature. The tPA-coated plate is washed with a solution of 0.05% Tween 20 and 0.1% BSA, then the plate is blocked with a solution of 3% BSA. An aliquot of the test compound/PAI-1 solution is then added to the tPA-coated plate, incubated at room temperature for 1 hour, and washed. Active PAI-1 bound to the plate is assessed by adding an aliquot of a 1:1000 dilution of the 33B8 monoclonal antibody against human PAI-1, and incubating the plate at room temperature for 1 hour (Molecular Innovations, Royal Oak, Mich.). The plate is again washed, and a solution of goat anti-mouse IgG-alkaline phosphatase conjugate is added at a 1:50,000 dilution in goat serum. The plate is incubated 30 minutes at room temperature, washed, and a solution of alkaline phosphatase substrate is added. The plate is incubated 45 minutes at room temperature, and color development is determined at OD405 nm. The quantitation of active PAI-1 bound to tPA at varying concentrations of the test compound is used to determine the IC50. Results are analyzed using a logarithmic best-fit equation. The assay sensitivity is 5 ng/ml of human PAI-1 as determined from a standard curve ranging from 0-100 ng/ml.
Chain of human PAI-1 (P05121 24-402): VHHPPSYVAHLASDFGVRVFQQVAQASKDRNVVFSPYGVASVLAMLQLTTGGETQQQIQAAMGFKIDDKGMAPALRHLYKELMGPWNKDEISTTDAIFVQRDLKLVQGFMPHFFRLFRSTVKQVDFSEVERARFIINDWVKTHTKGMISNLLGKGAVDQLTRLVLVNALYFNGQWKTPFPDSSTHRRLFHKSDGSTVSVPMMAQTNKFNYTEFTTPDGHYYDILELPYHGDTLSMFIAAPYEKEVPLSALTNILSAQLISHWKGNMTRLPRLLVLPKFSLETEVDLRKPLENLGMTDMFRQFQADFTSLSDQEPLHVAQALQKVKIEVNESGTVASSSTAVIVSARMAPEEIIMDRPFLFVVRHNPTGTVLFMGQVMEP

Broadly, the IC50 is the midpoint of a concentration-inhibition curve. Low values mean inhibition by little substance, high ones a need for much substance. Turning to `O=C(Nc1cc(OCCCO/N=C/c2ccc(C(F)(F)F)cc2)ccc1C(=O)O)c1ccc(OC(F)(F)F)cc1` [Compound 30, 2-{[4-(Trifluoromethoxy)benzoyl]amino}-4-{3-[({(1E)-[4-(trifluoromethyl)phenyl]methylidene}amino)oxy]propoxy}benzoic Acid], the IC50 in data set [1] was 15.9 µM.

For orientation: melting point means the temperature, or range, at which the solid turns liquid. Take `O=C(Nc1cc(OCCCO/N=C/c2ccc(-c3ccccc3)cc2)ccc1C(=O)O)c1cc(C(F)(F)F)cc(C(F)(F)F)c1` [Compound 31, 4-[3-({[(1E)-1,1′-Biphenyl-4-ylmethylidene]amino}oxy)propoxy]-2-{[3,5-bis(trifluoromethyl)benzoyl]amino}benzoic Acid]: the melting point was 205 to 206 °C (dec.). This compound also registered an IC50 in data set [1] of 19.6 µM.

Compound `CC(C)(C)c1ccc(/C=N/OCc2ccc(C(=O)O)c(Br)c2)cc1` [Compound 33, 2-Bromo-4-[({[(1E)-(4-tert-butylphenyl)methylidene]amino}oxy)methyl]benzoic Acid] displayed a melting point of 162 to 163 °C. In data set [1], this compound yielded an IC50 of 13.8 µM.

`O=C(Nc1cc(OCCCO/N=C/c2ccc(C(F)(F)F)cc2)ccc1C(=O)O)c1ccc(C(F)(F)F)cc1` [Compound 22, 2-{[4-(Trifluoromethyl)benzoyl]amino}-4-{3-[({(1E)-[4-(trifluoromethyl)phenyl]methylidene}amino)oxy]propoxy}benzoic Acid] had a melting point of 208.6 to 209.6 °C. Half-maximal inhibition in data set [1] (IC50) was put at 4.14 µM.

For `CC(C)(C)c1ccc(/C=N/OCCCOc2ccc(C(=O)O)c(NC(=O)c3cc(C(F)(F)F)cc(C(F)(F)F)c3)c2)cc1` [Compound 27, 2-{[3,5-Bis(trifluoromethyl)benzoyl]amino}-4-[3-({[(1E)-(4-tert-butylphenyl)methylidene]amino}oxy)propoxy]benzoic Acid], the melting point is 157.5 to 158.5 °C. In data set [1], this compound yielded an IC50 of 15.7 µM.

`CC(=NOCCOc1ccc(C(=O)O)c(OC(=O)c2ccc(C(C)(C)C)cc2)c1)c1ccccc1` [Compound 6] came in with an IC50 in data set [1] of 16.7 µM.

The compound `CC(C)(C)c1ccc(/C=N/OCCCOc2ccc(C(=O)O)c(NC(=O)c3ccccc3C(F)(F)F)c2)cc1` [Compound 24, 4-[3-({[(1E)-(4-tert-Butylphenyl)methylidene]amino}oxy)propoxy]-2-{[2-(trifluoromethyl)benzoyl]amino}benzoic acid] gave a melting point of 121.1 to 122 °C. Besides, the IC50 in data set [1] came out at 17.5 µM.

In the case of `CC/C(=N\OCCCOc1ccc(C(=O)O)c(NC(=O)c2ccc(C(F)(F)F)cc2)c1)c1ccc(C(C)(C)C)cc1` [Compound 21, 4-[3-({[(1E)-1-(4-tert-butylphenyl)propylidene]amino}oxy)propoxy]-2-{[4-(trifluoromethyl)benzoyl]amino}benzoic Acid], the melting point was in the range of 149.4 to 151 °C. This compound displayed a concentration for half-maximal inhibition (IC50) in data set [1] of 16.3 µM.

In the case of `CC(C)(C)c1ccc(C=NOCCCOc2ccc(CC(=O)O)cc2)cc1` [Compound 4, {4-[3-(4-tert-Butyl-benzylideneaminooxy)-propoxy]-phenyl}-acetic Acid], the melting point is 56.2 to 59.2 °C. In addition, the midpoint of inhibition in data set [1], the IC50, lay at 34.2 µM.

`O=C(O)c1ccc(OCCCO/N=C/c2cc(C(F)(F)F)cc(C(F)(F)F)c2)cc1O` [Compound 19, 4-{3-[({(E)-[3,5-Bis(trifluoromethyl)phenyl]methylidene}amino)oxy]propoxy}-2-hydroxybenzoic Acid]: the melting point is 181.9 to 183.4 °C. This compound registered a 50% inhibitory concentration (IC50) in data set [1] of 4.14 µM.

As to `CC(C)(C)c1ccc(/C=N/OCCOc2ccc(C(=O)O)c(OC(=O)c3ccc(C(C)(C)C)cc3)c2)cc1` [Compound 10, 2-{[4-(tert-Butyl)benzoyl]oxy}-4-{2-[({(E)-[4-(tert-butyl)phenyl]methylidene}amino)oxy]ethoxy}benzoic Acid], the melting point is 148.1 to 150.1 °C. The compound further came in with an IC50 in data set [1] of 17.8 µM.
